Numbers after ± are expanded uncertainties.
Columns and labels:
[1] = 298 K; 100 kPa; Liquid; Frequency=0.001 MHz; Alternating current cell with electrodes
[2] = refractive index (Na D-line) (dimensionless); conditions: 298 K; 101.33 kPa; Liquid; Standard Abbe refractometry
[3] = mn = molality of the nth substance listed, in mol/kg; conditions: 298 K, 100 kPa, Liquid, Frequency=0.001 MHz, Alternating current cell with electrodes
[4] = refractive index (Na D-line) (dimensionless); mn = molality of the nth substance listed, in mol/kg; conditions: 298 K, 100 kPa, Liquid, Standard Abbe refractometry

O [water]
Conditions	electrical conductivity [S/m]	refractive index
[1]	0.000502 ± 0.0005	–
[2]	–	1.3327 ± 0.0007

CC(C)O [propan-2-ol] + O
Conditions	electrical conductivity, [3] [S/m]	refractive index, [4]
m1 = 0.85	0.000134	1.3374 ± 0.0007
m1 = 1.45	0.000141	1.3408 ± 0.0007
m1 = 2.84	8.2e-05	1.3467 ± 0.0007
m1 = 4.36	9.4e-05	1.3511 ± 0.0007
m1 = 8.72	5e-05	1.361 ± 0.0007
m1 = 13.08	4.7e-05	1.365 ± 0.0007

CCO [ethanol]
Conditions	refractive index
[2]	1.36 ± 0.0007

CC(C)O [propan-2-ol]
Conditions	refractive index
[2]	1.3758 ± 0.0007

CCCO [propan-1-ol]
Conditions	refractive index
[2]	1.3834 ± 0.0007

CCCCCCCCCCCCOS(=O)(=O)[O-].[Na+] [sodium dodecyl sulfate] + O
[3]
Conditions	electrical conductivity [S/m]
m1 = 0.00099	0.00957 ± 0.0005
m1 = 0.00198	0.0183 ± 0.00061
m1 = 0.00297	0.0271 ± 0.00061
m1 = 0.00396	0.0357 ± 0.00061
m1 = 0.00495	0.0443 ± 0.00061
m1 = 0.00594	0.0528 ± 0.00063
m1 = 0.00693	0.061 ± 0.00069
m1 = 0.00792	0.0684 ± 0.00073
m1 = 0.00891	0.074 ± 0.00076
m1 = 0.0099	0.0777 ± 0.00079
m1 = 0.01089	0.0813 ± 0.00083
m1 = 0.01188	0.0846 ± 0.00086
m1 = 0.01287	0.0878 ± 0.00089
m1 = 0.01386	0.09108 ± 0.00091

CCCO [propan-1-ol] + O
Conditions	electrical conductivity, m1 = 0.87 [S/m]	electrical conductivity, m1 = 1.49 [S/m]	electrical conductivity, m1 = 2.76 [S/m]	electrical conductivity, m1 = 4.29 [S/m]	electrical conductivity, m1 = 6.77 [S/m]	refractive index, m1 = 0.87	refractive index, m1 = 1.49	refractive index, m1 = 2.76	refractive index, m1 = 4.29	refractive index, m1 = 6.77
[3]	0.000153	0.000145	0.000111	0.000117	0.000143	–	–	–	–	–
[4]	–	–	–	–	–	1.3381 ± 0.0007	1.3414 ± 0.0007	1.3465 ± 0.0007	1.3516 ± 0.0007	1.3572 ± 0.0007

CCO [ethanol] + O
Conditions	electrical conductivity, [3] [S/m]	refractive index, [4]
m1 = 0.9	0.000248	1.3362 ± 0.0007
m1 = 1.46	0.000259 ± 0.0005	1.3375 ± 0.0007
m1 = 2.69	0.000287 ± 0.0005	1.34 ± 0.0007
m1 = 4.09	0.000311 ± 0.0005	1.3431 ± 0.0007
m1 = 7.59	0.000251 ± 0.0005	1.3497 ± 0.0007
m1 = 9.51	0.000252 ± 0.0005	1.3521 ± 0.0007

Reference: the NIST ThermoML archive (doi:10.1021/acs.jced.8b00181)
